Drawing on PubChem BioAssay (NCI), this text covers GI50 and TGI for 13 molecules.

Some test systems named below: MOLT-4 leukemia; BT-549 breast; HS 578T breast; OVCAR-8 ovarian; MCF7 breast; MDA-MB-231 breast; T-47D breast.
Assay in all cases: NCI anticancer screen, dose series, 48 h

Several values for one entry are separate records, joined by “and”; a condition that tells them apart may be missing. Identical values can stand only once.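 The compound was tested at five concentrations on cells cultured in 96-well plates, with a 48-hour exposure period. GI50: concentration for 50% inhibition of growth. TGI: concentration producing complete growth inhibition.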

As for `C=CCCCCCCCCCCC1(O)C=CC2=[N+](CCCCCN=C(N)N)CCCN21` (stereo not given), the GI50 is 4.4 µM in the experiment with MOLT-4 leukemia; 3.56 µM in the experiment with BT-549 breast; 3.82 µM in the experiment on HS 578T breast; 7.24 µM in the experiment with OVCAR-8 ovarian; 12.3 µM in the experiment with MCF7 breast; 9.98 µM in the experiment on MDA-MB-231 breast. In addition, in the experiment with T-47D breast, the GI50 was 22 µM. In addition, the TGI in the experiment on MOLT-4 leukemia came to 20.4 µM; in the experiment on BT-549 breast, 13.2 µM; with HS 578T breast, 13.1 µM; in the experiment on OVCAR-8 ovarian it was 26.1 µM; with MCF7 breast, 40.8 µM; in the experiment on MDA-MB-231 breast, 30.2 µM. The molecule also showed a TGI in the experiment with T-47D breast of 55.6 µM.
As for `COc1ccccc1N1CCN(CCCn2c(=O)c3c(OC)nc(C)cc3c(=O)n2-c2ccccc2)CC1`, the GI50 with MOLT-4 leukemia, with HS 578T breast, with MCF7 breast, in the experiment with MDA-MB-231 breast and with T-47D breast was greater than 100 µM in each case. Moreover, the TGI in the experiment with MOLT-4 leukemia, in the experiment on HS 578T breast, in the experiment with MCF7 breast, with MDA-MB-231 breast and with T-47D breast was greater than 100 µM throughout.
As to `CC1(C)OCCn2c1nc1c(N3CCOCC3)nc(-c3cnc(N)nc3)nc12`, the GI50 is 0.33 µM in the experiment on MOLT-4 leukemia; 0.183 µM in the experiment with BT-549 breast; 0.135 µM with HS 578T breast; 0.404 µM in the experiment on OVCAR-8 ovarian; 0.077 µM in the experiment with MCF7 breast; 0.457 µM with MDA-MB-231 breast. The GI50 with T-47D breast is 0.0325 µM. The TGI in the experiment on MOLT-4 leukemia was greater than 100 µM; in the experiment on BT-549 breast it was 2.91 µM; in the experiment with HS 578T breast it was 0.981 µM; in the experiment with OVCAR-8 ovarian, 11.2 µM; in the experiment with MCF7 breast, greater than 100 µM; in the experiment with MDA-MB-231 breast, greater than 89.2 µM. Besides, the TGI in the experiment with T-47D breast was 0.248 µM.
As for `Nc1c(C(=O)Nc2cccc(Br)c2)sc2nc3c(cc12)C(=O)CCC3`, the GI50 was 18.5 µM in the experiment with MOLT-4 leukemia; 3.1 µM in the experiment on BT-549 breast; 0.597 µM in the experiment on HS 578T breast; 33.7 µM in the experiment on OVCAR-8 ovarian; 0.373 µM in the experiment with MCF7 breast; 1.68 µM with MDA-MB-231 breast. Also, the GI50 in the experiment on T-47D breast is 2.13 µM. In addition, the TGI in the experiment on MOLT-4 leukemia is greater than 100 µM; in the experiment with BT-549 breast, greater than 100 µM; with HS 578T breast it was 83.5 µM; with OVCAR-8 ovarian it was greater than 100 µM; in the experiment on MCF7 breast, greater than 100 µM; with MDA-MB-231 breast it was 61.1 µM. Moreover, the TGI in the experiment on T-47D breast was greater than 100 µM.
As to `Oc1cc(O)c2c(c1)OC(c1ccc(O)c(O)c1)C(OC1(c3cc(O)c(O)c(O)c3)Oc3cc(O)cc(O)c3C(O)C1O)C2` (stereo not given), the TGI in the experiment on MOLT-4 leukemia was 52.8 µM; in the experiment with BT-549 breast, greater than 83.6 µM; in the experiment on HS 578T breast, greater than 86.1 µM; in the experiment with OVCAR-8 ovarian, greater than 67.7 µM; in the experiment on MCF7 breast, 40.2 µM; with MDA-MB-231 breast, 45.8 µM. In the experiment with T-47D breast, this molecule showed a TGI greater than 100 µM.
Regarding `CC(=O)c1cc2c(o1)C(=O)c1ccccc1C2=O`, the GI50 with MOLT-4 leukemia is 0.57 µM and 0.865 µM; with BT-549 breast, 0.164 µM and 0.161 µM; in the experiment with HS 578T breast, 0.292 µM and 0.295 µM; in the experiment with OVCAR-8 ovarian, 0.411 µM and 0.378 µM; with MCF7 breast it was 0.167 µM and 0.171 µM; in the experiment on MDA-MB-231 breast, 0.765 µM and 1.66 µM. Besides, the GI50 in the experiment with T-47D breast was 1.33 µM and 1.6 µM. Moreover, the TGI in the experiment on MOLT-4 leukemia is 1.85 µM and 3.65 µM; with BT-549 breast, 0.312 µM and 0.304 µM; with HS 578T breast, 0.771 µM and 0.806 µM; in the experiment with OVCAR-8 ovarian, 1.32 µM and 1.53 µM; in the experiment with MCF7 breast, 0.394 µM; in the experiment on MDA-MB-231 breast, 4.29 µM and 6.88 µM. Further, the TGI in the experiment with T-47D breast is 3.43 µM and 4.06 µM.
`CCOc1ccc2nc(S/C(=C/C=C(C#N)C#N)c3ccc(C)cc3)sc2c1`: the GI50 with MOLT-4 leukemia was 3.03 µM; in the experiment with BT-549 breast it was 25.6 µM; with HS 578T breast, 32.2 µM; in the experiment with OVCAR-8 ovarian it was 32.8 µM; with MCF7 breast, 17.8 µM; in the experiment on MDA-MB-231 breast, 17.8 µM. Besides, the GI50 in the experiment with T-47D breast was 42.4 µM. The TGI was 8.5 µM in the experiment on MOLT-4 leukemia; 70.1 µM with BT-549 breast; 88.4 µM in the experiment with HS 578T breast; greater than 100 µM in the experiment on OVCAR-8 ovarian; 79.6 µM in the experiment on MCF7 breast; 43.4 µM in the experiment on MDA-MB-231 breast. In the experiment with T-47D breast, the TGI was greater than 100 µM.
Regarding `N#Cc1c(-c2ccc(F)cc2)c(-c2ccc(F)cc2)nn(CCO)c1=O`, the TGI was greater than 100 µM in the experiment with MOLT-4 leukemia; 39.9 µM in the experiment with BT-549 breast; 12.1 µM in the experiment with HS 578T breast; greater than 100 µM with MCF7 breast; greater than 71 µM with MDA-MB-231 breast; greater than 100 µM in the experiment with T-47D breast.
Regarding `C1CSCCSCCS1`, the TGI in the experiment on MOLT-4 leukemia, in the experiment with BT-549 breast, in the experiment with OVCAR-8 ovarian, in the experiment on MCF7 breast, in the experiment on MDA-MB-231 breast and in the experiment with T-47D breast was greater than 100 µM each time.
Take `COC12C=C/C(=C(/C(=O)OCc3ccncc3)C(=O)CCCCCCCCC3(OC)C=C/C(=C(/C(=O)OCc4ccncc4)C(=O)CCCCCCCC1)O3)O2`: the GI50 with MOLT-4 leukemia is 0.172 µM; with BT-549 breast it was 0.638 µM; in the experiment with HS 578T breast, 1.75 µM; with OVCAR-8 ovarian, 0.219 µM; in the experiment on MDA-MB-231 breast, 0.686 µM; in the experiment on T-47D breast it was 0.706 µM. The TGI stood at 1.85 µM in the experiment with MOLT-4 leukemia; 3.21 µM in the experiment with BT-549 breast; 15.4 µM in the experiment on HS 578T breast; 50 µM in the experiment with OVCAR-8 ovarian; 6.51 µM with MDA-MB-231 breast; 21.5 µM in the experiment on T-47D breast.
As to `O=c1cc2oc3cc(O)c(O)cc3c(-c3ccccc3O)c-2cc1O`, the GI50 is 14.9 µM in the experiment with MOLT-4 leukemia; 14.4 µM in the experiment on BT-549 breast; 16 µM with OVCAR-8 ovarian; 18.4 µM in the experiment on MCF7 breast; 10.2 µM in the experiment with MDA-MB-231 breast; 9.51 µM with T-47D breast. Further, the TGI in the experiment on MOLT-4 leukemia was greater than 100 µM; in the experiment with BT-549 breast, 40.3 µM; with OVCAR-8 ovarian, greater than 100 µM; with MCF7 breast, greater than 100 µM; in the experiment with MDA-MB-231 breast, greater than 100 µM; in the experiment with T-47D breast, greater than 100 µM.
Turning to `CC1=CC(=O)[C@@H](O)[C@]2(C)[C@H]3[C@@]4(O)OC[C@]35[C@H]([C@@H](C)[C@H]4O)[C@@H](O)C(=O)O[C@@H]5C[C@@H]12`, the TGI was found to be 5.17 µM with BT-549 breast; 1.19 µM in the experiment on HS 578T breast; 5.82 µM in the experiment on OVCAR-8 ovarian; 0.546 µM with MCF7 breast; 1.44 µM in the experiment on MDA-MB-231 breast.
In the case of `Cc1ccc(/C=C/c2c(C(=O)/C=C/c3ccc(C(F)(F)F)cc3)c(C)nc3ccccc23)cc1`, the GI50 is 0.625 µM in the experiment with MOLT-4 leukemia; 1.58 µM in the experiment on BT-549 breast; 1.66 µM with HS 578T breast; 1.88 µM in the experiment on OVCAR-8 ovarian; 0.557 µM in the experiment on MCF7 breast; 1.65 µM in the experiment with MDA-MB-231 breast. In addition, the TGI with MOLT-4 leukemia was greater than 100 µM; in the experiment with BT-549 breast it was 3.34 µM; with HS 578T breast, 4.63 µM; in the experiment with OVCAR-8 ovarian, 6.43 µM; in the experiment with MCF7 breast, 2.3 µM; in the experiment on MDA-MB-231 breast, 3.43 µM.
